Experimental data as given in the supplement of paper PMC11061612.

Assays:
[1] = tested on: NCI-H1568 (Lung Adenocarcinoma); assay: Bliss excess, mean over the matrix (fraction); higher = more synergy
How it was run: (§1)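 After 24 hours at 37°C and 5% CO2 in 1536-well plates, cells in DMEM/F12 or RPMI plus 10% FBS received two-drug dose matrices for 72 hours. Viability came from CellTiter-Glo 2.0 luminescence and was scaled as inhibition, anchored at 0 by vehicle wells and at 1 by blank wells. Combination Emax is taken as the second-highest inhibition in the matrix, and Bliss excess as the observed combination effect less EA + EB − EA·EB, with EA and EB the single-agent effects.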

[2] = tested on: NCI-H720 (Other Solid Carcinomas); assay: as above
How it was run: as §1

KS-1 (Glioblastoma) = assay: as above
How it was run: as §1

[3] = tested on: NUGC-4 (Gastric Carcinoma); assay: as above
How it was run: as §1

[4] = tested on: HeLa (Cervical Carcinoma); assay: as above
How it was run: as §1

A673 (Ewing's Sarcoma) = assay: as above
How it was run: as §1

[5] = tested on: SNU-449 (Hepatocellular Carcinoma); assay: as above
How it was run: as §1

BE2-M17 (Neuroblastoma) = assay: as above
How it was run: as §1

GAMG (Glioblastoma) = assay: as above
How it was run: as §1

CHP-134 (Neuroblastoma) [6] = assay: as above
How it was run: as §1

[7] = tested on: MHH-CALL-2 (B-Lymphoblastic Leukemia); assay: as above
How it was run: as §1

[8] = tested on: WSU-NHL (B-Cell Non-Hodgkin's Lymphoma); assay: as above
How it was run: as §1

[9] = tested on: NCI-H720 (Other Solid Carcinomas); assay: combination Emax (second highest fraction inhibited in the dose matrix, 72 h); higher = more inhibition; extreme values may be limits of the assay
How it was run: as §1

CHP-134 (Neuroblastoma) [10] = assay: as above
How it was run: as §1
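Wherever Bliss excess, mean over the matrix is given: after 72 h of two-drug dosing.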

With `CN(C)CCCOc1ccc(-c2ccc3ncc4c(c3c2)n(C2CCOCC2)c(=O)n4C)cn1` [AZD0156] + O=C(c1cc(Cc2n[nH]c(=O)c3ccccc23)ccc1F)N1CCN(C(=O)C2CC2)CC1 [Olaparib] (first compound max 3 µM, partner max 3 µM) the Bliss excess [1] was 0.0101, the Bliss excess [2] was 0.0622 and the Bliss excess (KS-1 (Glioblastoma)) was 0.0259. It also gave a Bliss excess [3] of -0.0473, a Bliss excess [4] of -0.0057 and a Bliss excess (A673 (Ewing's Sarcoma)) of 0.16. The Bliss excess [5] was -0.0344, the Bliss excess (BE2-M17 (Neuroblastoma)) was 0.0515 and the Bliss excess (GAMG (Glioblastoma)) was 0.0515. For the same molecule, the Bliss excess (CHP-134 (Neuroblastoma) [6]) was 0.174, the Bliss excess [7] was 0.106 and the Bliss excess [8] was 0.403. For the same molecule, the “combination Emax” value [9] was 0.371 and the “combination Emax” value (CHP-134 (Neuroblastoma) [10]) was 0.434.
For `C=CCn1c(=O)c2cnc(Nc3ccc(N4CCN(C)CC4)cc3)nc2n1-c1cccc(C(C)(C)O)n1` [AZD1775] + C1CN(CCC1(C(=O)N[C@@H](CCO)C2=CC=C(C=C2)Cl)N)C3=NC=NC4=C3C=CN4 [Capivasertib] (first compound max 3 µM, partner max 3 µM), the Bliss excess [1] was -0.0572, the Bliss excess [2] was -0.0252 and the Bliss excess (KS-1 (Glioblastoma)) was -0.0126. It also gave a Bliss excess [3] of -0.14, a Bliss excess [4] of -0.0168 and a Bliss excess (A673 (Ewing's Sarcoma)) of 0.018. It also gave a Bliss excess [5] of 0.0122, a Bliss excess (BE2-M17 (Neuroblastoma)) of -0.0406 and a Bliss excess (GAMG (Glioblastoma)) of 0.0181. For the same molecule, the Bliss excess (CHP-134 (Neuroblastoma) [6]) was -0.0416, the Bliss excess [7] was 0.029 and the Bliss excess [8] was -0.0271. For the same molecule, the “combination Emax” value [9] was 0.842 and the “combination Emax” value (CHP-134 (Neuroblastoma) [10]) was 0.844.
Molecule `COc1cccc(OCCCN)c1-c1cc(Nc2cnc(C#N)cn2)n[nH]1` [Prexasertib] + CCc1c2c(nc3ccc(O)cc13)-c1cc3c(c(=O)n1C2)COC(=O)[C@]3(O)CC [SN-38] (first compound max 1 µM, 7x7, partner max 0.3 µM) has a Bliss excess [1] of 0.0165, a Bliss excess [2] of 0.197 and a Bliss excess (KS-1 (Glioblastoma)) of -0.0848. The Bliss excess [3] was -0.0568, the Bliss excess [4] was 0.0837 and the Bliss excess (A673 (Ewing's Sarcoma)) was -0.0105. The Bliss excess [5] was -0.0091, the Bliss excess (BE2-M17 (Neuroblastoma)) was 0.0576 and the Bliss excess (GAMG (Glioblastoma)) was 0.0292. For the same molecule, the Bliss excess [7] was 0.0227, the Bliss excess [8] was -0.0073 and the “combination Emax” value [9] was 0.886.
In the case of `COc1cccc(OCCCN)c1-c1cc(Nc2cnc(C#N)cn2)n[nH]1` [Prexasertib] + C[C@@H]1COCCN1C2=NC(=NC(=C2)C3(CC3)[S@](=N)(=O)C)C4=C5C=CNC5=NC=C4 [AZD6738] (first compound max 1 µM, 7x7, partner max 10 µM), the Bliss excess [1] is reported as -0.0668, the Bliss excess [2] is reported as -0.0325 and the Bliss excess (KS-1 (Glioblastoma)) is reported as -0.0298. It also gave a Bliss excess [3] of -0.0203, a Bliss excess [4] of 0.005 and a Bliss excess (A673 (Ewing's Sarcoma)) of -0.014. It also gave a Bliss excess [5] of 0.0134, a Bliss excess (BE2-M17 (Neuroblastoma)) of -0.0172 and a Bliss excess (GAMG (Glioblastoma)) of 0.0414. The Bliss excess [8] was 0.0077 and the “combination Emax” value [9] was 0.697.
`COc1cccc(OCCCN)c1-c1cc(Nc2cnc(C#N)cn2)n[nH]1` [Prexasertib] + Cc1cc2ncnn2cc1Nc1ncc2c(n1)n(C1CCOCC1)c(=O)n2C [AZD7648] (first compound max 1 µM, 7x7, partner max 10 µM) showed a Bliss excess [1] of -0.0303, a Bliss excess [2] of 0.0515 and a Bliss excess (KS-1 (Glioblastoma)) of 0.0198. For the same molecule, the Bliss excess [3] was 0.0137, the Bliss excess [4] was 0.0133 and the Bliss excess (A673 (Ewing's Sarcoma)) was -0.0112. It also gave a Bliss excess [5] of -0.0861, a Bliss excess (BE2-M17 (Neuroblastoma)) of 0.0047 and a Bliss excess (GAMG (Glioblastoma)) of -0.0214. The Bliss excess [8] was -0.0355 and the “combination Emax” value [9] was 0.746.
In the case of `COc1cccc(OCCCN)c1-c1cc(Nc2cnc(C#N)cn2)n[nH]1` [Prexasertib] + O=C(c1cc(Cc2n[nH]c(=O)c3ccccc23)ccc1F)N1CCN(C(=O)C2CC2)CC1 [Olaparib] (first compound max 1 µM, 7x7, partner max 10 µM), the Bliss excess [1] is reported as -0.0593, the Bliss excess [2] is reported as 0.0208 and the Bliss excess (KS-1 (Glioblastoma)) is reported as -0.0439. It also gave a Bliss excess [3] of -0.019, a Bliss excess [4] of -0.0483 and a Bliss excess (A673 (Ewing's Sarcoma)) of -0.0452. For the same molecule, the Bliss excess [5] was -0.0813, the Bliss excess (BE2-M17 (Neuroblastoma)) was -0.0225 and the Bliss excess (GAMG (Glioblastoma)) was 0.0122. The Bliss excess [8] was -0.0532 and the “combination Emax” value [9] was 0.64.
`CCc1c2c(nc3ccc(O)cc13)-c1cc3c(c(=O)n1C2)COC(=O)[C@]3(O)CC` [SN-38] + CN(C)CCCOc1ccc(-c2ccc3ncc4c(c3c2)n(C2CCOCC2)c(=O)n4C)cn1 [AZD0156] (first compound max 0.3 µM, 7x7, partner max 1 µM) showed a Bliss excess [1] of -0.0078, a Bliss excess [2] of 0.035 and a Bliss excess (KS-1 (Glioblastoma)) of -0.0369. The Bliss excess [3] was 0.0208, the Bliss excess [4] was 0.0255 and the Bliss excess (A673 (Ewing's Sarcoma)) was 0.0777. It also gave a Bliss excess [5] of -0.0353, a Bliss excess (BE2-M17 (Neuroblastoma)) of -0.0073 and a Bliss excess (GAMG (Glioblastoma)) of 0.0527. For the same molecule, the Bliss excess [8] was 0.0636 and the “combination Emax” value [9] was 0.397.
